Patent publication US12006500B2 (priority 2020, dated 2024)
Like-named read-outs stand apart in the source and are kept apart here. d = 2'-deoxy (DNA); r = 2'-OH (RNA)

Key:
Assay type in all cases: cell-based
SARS-CoV-2 = details: for block of infection at the lowest concentration tested / inhibition of infection compared to the NS control: concentration curves; for block of infection at the lowest concentration tested: 3 nM; for inhibition of infection compared to the NS control: individual siRNAs at varying concentrations, flat response; for Duplicate A % Infection / Duplicate B % Infection / Mean % infected / Mean % inhibition / Duplicate A % Inhibition / Duplicate B % Inhibition: primary screen using live virus; for Mean % infected / Mean % inhibition: average of the duplicates; for Mean % inhibition: vs non-silencing controls; for Duplicate A % Inhibition / Duplicate B % Inhibition: compared to the mean of the non-silencing controls
[1] = tested on: SARS-CoV-2 target gene fragments (Spike, ORF1ab, ORF3A & E & M, N & ORF10 & 3'UTR); details: for Primary Screening (KD %, 60 ng/well, 48 h, 96 well) 293T / EC50 (pg/ul, 48 h, 96 well) 293T: Table C; for EC50 293T cells: Table D
[2] = tested on: SARS-CoV-2 target gene fragments (Spike, ORF1ab, ORF3A & E & M, N & ORF10 & 3'UTR); details: for Primary Screening (KD %, 60 ng/well, 48 h, 96 well) A549 / EC50 (pg/ul, 48 h, 96 well) A549: Table C; for EC50 A549 cells: Table D

## CCTAATGTGTAAAATTAAT [COV24]
SARS-CoV-2
  block of infection at the lowest concentration tested: complete block of infection
[1]
  Primary Screening (KD %, 60 ng/well, 48 h, 96 well) 293T: 86%
  EC50 (pg/ul, 48 h, 96 well) 293T: 2.4 pg/µL
  EC50 293T cells: 2.4 ng/mL

## CUUGCUGCUACUAAAAUGUdTdT [Guangzhou13]
[2]; A549
  Primary Screening (KD %, 60 ng/well, 48 h, 96 well) A549: 82%
[1]
  Primary Screening (KD %, 60 ng/well, 48 h, 96 well) 293T: 76%

## CGACTACTAGCGTGCCTTT [COV6]
SARS-CoV-2
  inhibition of infection compared to the NS control: ~50%
[2]; A549
  Primary Screening (KD %, 60 ng/well, 48 h, 96 well) A549: 87%
  EC50 (pg/ul, 48 h, 96 well) A549: 0.9 pg/µL
[2]
  EC50 A549 cells: 0.9 ng/mL
[1]
  Primary Screening (KD %, 60 ng/well, 48 h, 96 well) 293T: 78%
  EC50 (pg/ul, 48 h, 96 well) 293T: 17.9 pg/µL
  EC50 293T cells: 17.9 ng/mL

## GCCGCAAATTGCACAATTT [COV15]
SARS-CoV-2
  block of infection at the lowest concentration tested: complete block of infection
  Duplicate A % Infection: 10%
  Duplicate B % Infection: 13%
  Mean % infected: 11%
  Mean % inhibition: 56%
  Duplicate A % Inhibition: 54%
  Duplicate B % Inhibition: 57%

## UUUGGUGGUUUUAAUUUUUCACAAA (antisense strand not given here) [Guangzhou30]
[2]; A549
  Primary Screening (KD %, 60 ng/well, 48 h, 96 well) A549: 78%
[1]
  Primary Screening (KD %, 60 ng/well, 48 h, 96 well) 293T: 86%

## CAAGUCAAACAAAUUUACAdTdT (sense CAAGUCAAACAAAUUUACATT; sugars from the 5' end r19 d2, backbone not given here) [Guangzhou5]
[2]; A549
  Primary Screening (KD %, 60 ng/well, 48 h, 96 well) A549: 80%
[1]
  Primary Screening (KD %, 60 ng/well, 48 h, 96 well) 293T: 75%

## CUGCUAAUCUUGCUGCUACUAAAAU [Guangzhou21]
[2]; A549
  Primary Screening (KD %, 60 ng/well, 48 h, 96 well) A549: 91%
[1]
  Primary Screening (KD %, 60 ng/well, 48 h, 96 well) 293T: 81%

## CCCTAATGTGTAAAATTAA [COV23]
SARS-CoV-2
  block of infection at the lowest concentration tested: complete block of infection

## UGCUAAUCUUGCUGCUACUAAAAUG (antisense strand not given here) [Guangzhou25]
[2]; A549
  Primary Screening (KD %, 60 ng/well, 48 h, 96 well) A549: 90%
[1]
  Primary Screening (KD %, 60 ng/well, 48 h, 96 well) 293T: 83%

## CUAAUCUUGCUGCUACUAAdTdT [Guangzhou12]
[2]; A549
  Primary Screening (KD %, 60 ng/well, 48 h, 96 well) A549: 85%
[1]
  Primary Screening (KD %, 60 ng/well, 48 h, 96 well) 293T: 70%

## GGAAGAGCCCTAATGTGTA [COV21]
SARS-CoV-2
  block of infection at the lowest concentration tested: complete block of infection

## GGAAGGAAGTTCTGTTGAA [COV3]
SARS-CoV-2
  inhibition of the virus: 100%
  block of infection at the lowest concentration tested: complete block of infection
  Duplicate A % Infection: 3%
  Duplicate B % Infection: 6%
  Mean % infected: 5%
  Mean % inhibition: 81%
  Duplicate A % Inhibition: 84%
  Duplicate B % Inhibition: 79%
  activity in a primary screen using live virus (ranking in words): best activity
SARS-CoV-2; 0.041 nM alone
  inhibition, single siRNA alone: ~48%
[2]; A549
  EC50 on the inhibition efficiency: 0.3 ng/mL
  Primary Screening (KD %, 60 ng/well, 48 h, 96 well) A549: 89%
  EC50 (pg/ul, 48 h, 96 well) A549: 0.3 pg/µL
[2]
  EC50 A549 cells: 0.3 ng/mL
[1]
  EC50 on the inhibition efficiency: 5.8 ng/mL
  Primary Screening (KD %, 60 ng/well, 48 h, 96 well) 293T: 89%
  EC50 (pg/ul, 48 h, 96 well) 293T: 5.8 pg/µL
  EC50 293T cells: 5.8 ng/mL

## CCAGAACAAACCCAAGGAA [COV13]
[1]
  Primary Screening (KD %, 60 ng/well, 48 h, 96 well) 293T: 84%
  EC50 (pg/ul, 48 h, 96 well) 293T: 3.1 pg/µL
  EC50 293T cells: 3.1 ng/mL

## CGCTTCGATTGTGTGCGTA [COV9]
SARS-CoV-2
  inhibition of infection compared to the NS control: ~50%
[2]; A549
  Primary Screening (KD %, 60 ng/well, 48 h, 96 well) A549: 74%
[1]
  Primary Screening (KD %, 60 ng/well, 48 h, 96 well) 293T: 88%

## GCUAAUCUUGCUGCUACUAAAAUGU [Guangzhou22]
[2]; A549
  Primary Screening (KD %, 60 ng/well, 48 h, 96 well) A549: 90%
[1]
  Primary Screening (KD %, 60 ng/well, 48 h, 96 well) 293T: 83%
  EC50 (pg/ul, 48 h, 96 well) 293T: 23.2 pg/µL

## GGACAAUCAAAAAGAGUUGdTdT [Guangzhou16]
[2]; A549
  Primary Screening (KD %, 60 ng/well, 48 h, 96 well) A549: 80%
[1]
  Primary Screening (KD %, 60 ng/well, 48 h, 96 well) 293T: 83%
  EC50 (pg/ul, 48 h, 96 well) 293T: 20.4 pg/µL

## CCACCAACAGAGCCTAAAA [COV18]
SARS-CoV-2
  inhibition of the virus: 100%
  block of infection at the lowest concentration tested: complete block of infection
  Duplicate A % Infection: 9%
  Duplicate B % Infection: 7%
  Mean % infected: 8%
  Mean % inhibition: 68%
  Duplicate A % Inhibition: 59%
  Duplicate B % Inhibition: 76%
  activity in a primary screen using live virus (ranking in words): best activity

## CUAAUCUUGCUGCUACUAAAAUGUC (antisense strand not given here) [Guangzhou23]
[2]; A549
  Primary Screening (KD %, 60 ng/well, 48 h, 96 well) A549: 87%
[1]
  Primary Screening (KD %, 60 ng/well, 48 h, 96 well) 293T: 79%

## GGCCGCAAATTGCACAATT [COV14]
SARS-CoV-2
  block of infection at the lowest concentration tested: complete block of infection
  Duplicate A % Infection: 9%
  Duplicate B % Infection: 8%
  Mean % infected: 8%
  Mean % inhibition: 66%
  Duplicate A % Inhibition: 57%
  Duplicate B % Inhibition: 75%
  activity in a primary screen using live virus (ranking in words): best activity

## CCTTTGAAAAAGGTGACTA [COV5]
[2]; A549
  Primary Screening (KD %, 60 ng/well, 48 h, 96 well) A549: 84%
[1]
  Primary Screening (KD %, 60 ng/well, 48 h, 96 well) 293T: 85%

## CCCACCAACAGAGCCTAAA [COV17]
SARS-CoV-2
  block of infection at the lowest concentration tested: complete block of infection

## UUGGUGGUUUUAAUUUUUCACAAAU (antisense strand not given here) [Guangzhou31]
[2]; A549
  Primary Screening (KD %, 60 ng/well, 48 h, 96 well) A549: 73%
[1]
  Primary Screening (KD %, 60 ng/well, 48 h, 96 well) 293T: 81%
  EC50 (pg/ul, 48 h, 96 well) 293T: 44 pg/µL

## GCCATTAGTGCAAAGAATA [COV4]
SARS-CoV-2
  inhibition of the virus: 100%
  block of infection at the lowest concentration tested: complete block of infection
  Duplicate A % Infection: 6%
  Duplicate B % Infection: 5%
  Mean % infected: 6%
  Mean % inhibition: 77%
  Duplicate A % Inhibition: 70%
  Duplicate B % Inhibition: 84%
  activity in a primary screen using live virus (ranking in words): best activity

## UCUGCUAAUCUUGCUGCUACUAAAA (antisense strand not given here) [Guangzhou32]
[2]; A549
  Primary Screening (KD %, 60 ng/well, 48 h, 96 well) A549: 90%
[1]
  Primary Screening (KD %, 60 ng/well, 48 h, 96 well) 293T: 89%
  EC50 (pg/ul, 48 h, 96 well) 293T: 8 pg/µL
  EC50 293T cells: ~8 ng/mL
